These results are taken from patent US9074014B2 (Ipsen Pharma S.A.S., priority 2008, dated 2015).

Data set [1] is described as follows: Human plasma half-life assay. The note with it: human plasma, 37° C., LC-MS; read-out: Human Plasma T½ (converted). The data set is classed as in vitro ADME.
Data set [2] can be described thus: Rat plasma half-life assay. The data set is classed as in vitro ADME. As to conditions: rat plasma, 37° C., LC-MS; read-out: Rat Plasma T½ (converted).

*1 amine or outer side, *2 acyl side, *3 side chain or, on linkers, in order; H or OH if unused. Where a SMILES comes first, the peptide text is derived from it. Where no end group is shown, it is not given here. [ ]: non-standard residue; d: D form. The star is where a group is joined. Desaminotyrosyl = O=C(CCc1ccc(O)cc1)*; X2 = O=C([C@@H]1CC(O)CN1[*:1])[*:2]; Pip = O=C(O)[C@@H]1CCCCN1; Ac6c = NC1(C(=O)O)CCCCC1; Nle = CCCC[C@H](N)C(=O)O; Ac5c = NC1(C(=O)O)CCCC1; Aib = CC(C)(N)C(=O)O

Take “YA[X2]GTFISDYSI[Aib]MDKIHQQDFVNWLLAQKGKKNDWKHNITQ [Example 67, (4Hyp^3, Aib^13)hGIP(1-42)-OH]”: the half-life at 0.1 mg/ml in data set [1] was > 33 h; in data set [2], 1.6 h.
Consider `CCCC[C@H](NC(=O)C(C)(C)NC(=O)[C@@H](NC(=O)[C@H](CO)NC(=O)[C@H](Cc1ccc(O)cc1)NC(=O)[C@H](CC(=O)O)NC(=O)[C@H](CO)NC(=O)[C@@H](NC(=O)[C@H](Cc1ccccc1)NC(=O)[C@@H](NC(=O)CNC(=O)[C@@H]1CC(O)CN1C(=O)[C@H](C)NC(=O)[C@@H](N)Cc1ccc(O)cc1)[C@@H](C)O)[C@@H](C)CC)[C@@H](C)CC)C(=O)N[C@@H](CC(=O)O)C(=O)N[C@@H](CCCCN)C(=O)N[C@H](C(=O)N[C@@H](Cc1c[nH]cn1)C(=O)N[C@@H](CCC(N)=O)C(=O)N[C@@H](CCC(N)=O)C(=O)N[C@@H](CC(=O)O)C(=O)N[C@@H](Cc1ccccc1)C(=O)N[C@H](C(=O)N[C@@H](CC(N)=O)C(=O)N[C@@H](Cc1c[nH]c2ccccc12)C(=O)N[C@@H](CC(C)C)C(=O)N[C@@H](CC(C)C)C(=O)N[C@@H](C)C(=O)N[C@@H](CCC(N)=O)C(=O)N[C@@H](CCCCN)C(=O)NCC(=O)N[C@@H](CCCCN)C(=O)N[C@@H](CCCCN)C(=O)N[C@@H](CC(N)=O)C(=O)N[C@@H](CC(=O)O)C(=O)N[C@@H](Cc1c[nH]c2ccccc12)C(=O)N[C@@H](CCCCN)C(=O)N[C@@H](Cc1c[nH]cn1)C(=O)N[C@@H](CC(N)=O)C(=O)N[C@H](C(=O)N[C@H](C(=O)N[C@@H](CCC(N)=O)C(=O)O)[C@@H](C)O)[C@@H](C)CC)C(C)C)[C@@H](C)CC` (stereo partly shown) [Example 68, (4Hyp^3, Aib^13, Nle^14)hGIP(1-42)-OH], for which the half-life at 0.1 mg/ml was > 48 h in data set [1] and 1.9 h in data set [2].
For `CCCC[C@H](NC(=O)[C@H](C)NC(=O)[C@@H](NC(=O)[C@H](CO)NC(=O)[C@H](Cc1ccc(O)cc1)NC(=O)[C@H](CC(=O)O)NC(=O)[C@H](CO)NC(=O)C1(NC(=O)[C@H](Cc2ccccc2)NC(=O)[C@@H](NC(=O)CNC(=O)[C@H](CCC(=O)O)NC(=O)C2(NC(=O)[C@@H](N)Cc3ccc(O)cc3)CCCC2)[C@@H](C)O)CCCC1)[C@@H](C)CC)C(=O)N[C@@H](CC(=O)O)C(=O)N[C@@H](CCCCN)C(=O)N[C@H](C(=O)N[C@@H](Cc1c[nH]cn1)C(=O)N[C@@H](CCC(N)=O)C(=O)N[C@@H](CCC(N)=O)C(=O)N[C@@H](CC(=O)O)C(=O)N[C@@H](Cc1ccccc1)C(=O)N[C@H](C(=O)N[C@@H](CC(N)=O)C(=O)N[C@@H](Cc1c[nH]c2ccccc12)C(=O)N[C@@H](CC(C)C)C(=O)N[C@@H](CC(C)C)C(=O)N[C@@H](C)C(=O)N[C@@H](CCC(N)=O)C(=O)N[C@@H](CCCCN)C(N)=O)C(C)C)[C@@H](C)CC` [Example 34, (A5c^2,7, Nle^14)hGIP(1-30)-NH2] (H-Y[Ac5c]EGTF[Ac5c]SDYSIA[Nle]DKIHQQDFVNWLLAQK-NH2; N-terminus assumed), the half-life at 0.1 mg/ml in data set [1] is > 48 h; in data set [2], 23 h.
The corresponding values for `CC[C@H](C)[C@H](NC(=O)[C@H](CCCCN)NC(=O)[C@H](CC(=O)O)NC(=O)[C@H](CCSC)NC(=O)[C@H](C)NC(=O)[C@@H](NC(=O)C1(NC(=O)[C@H](Cc2ccc(O)cc2)NC(=O)[C@H](CC(=O)O)NC(=O)[C@H](CO)NC(=O)[C@@H](NC(=O)[C@H](Cc2ccccc2)NC(=O)[C@@H](NC(=O)CNC(=O)[C@@H]2CCCN2C(=O)C(C)(C)NC(=O)[C@@H](N)Cc2ccc(O)cc2)[C@@H](C)O)[C@@H](C)CC)CCCC1)[C@@H](C)CC)C(=O)N[C@@H](Cc1c[nH]cn1)C(=O)N[C@@H](CCC(N)=O)C(=O)N[C@@H](CCC(N)=O)C(=O)N[C@@H](CC(=O)O)C(=O)N[C@@H](Cc1ccccc1)C(=O)N[C@H](C(=O)N[C@@H](CC(N)=O)C(=O)N[C@@H](Cc1c[nH]c2ccccc12)C(=O)N[C@@H](CC(C)C)C(=O)N[C@@H](CC(C)C)C(=O)N[C@@H](C)C(=O)N[C@@H](CCC(N)=O)C(=O)N[C@@H](CCCCN)C(N)=O)C(C)C` [Example 110, (Aib^2, Pro^3, A5c^11)hGIP(1-30)-NH2] (H-Y[Aib]PGTFISDY[Ac5c]IAMDKIHQQDFVNWLLAQK-NH2; N-terminus assumed) are 13.7 h and 25.8 h.
Taken in the same sequence, the figures for `CC[C@H](C)[C@H](NC(=O)[C@H](CO)NC(=O)[C@H](Cc1ccc(O)cc1)NC(=O)[C@H](CC(=O)O)NC(=O)[C@H](CO)NC(=O)C1(NC(=O)[C@H](Cc2ccccc2)NC(=O)[C@@H](NC(=O)CNC(=O)[C@H](CCC(=O)O)NC(=O)C(C)(C)NC(=O)[C@@H](N)Cc2ccc(O)cc2)[C@@H](C)O)CCCC1)C(=O)N[C@@H](C)C(=O)NC1(C(=O)N[C@@H](CC(=O)O)C(=O)N[C@@H](CCCCN)C(=O)N[C@H](C(=O)N[C@@H](Cc2c[nH]cn2)C(=O)N[C@@H](CCC(N)=O)C(=O)N[C@@H](CCC(N)=O)C(=O)N[C@@H](CC(=O)O)C(=O)N[C@@H](Cc2ccccc2)C(=O)N[C@H](C(=O)N[C@@H](CC(N)=O)C(=O)N[C@@H](Cc2c[nH]c3ccccc23)C(=O)N[C@@H](CC(C)C)C(=O)N[C@@H](CC(C)C)C(=O)N[C@@H](C)C(=O)N[C@@H](CCC(N)=O)C(=O)N[C@@H](CCCCN)C(N)=O)C(C)C)[C@@H](C)CC)CCCC1` [Example 35, (Aib^2, A5c^7, 14)hGIP(1-30)-NH2] (H-Y[Aib]EGTF[Ac5c]SDYSIA[Ac5c]DKIHQQDFVNWLLAQK-NH2; N-terminus assumed) were > 48 h and 39.4 h.
`CCCC[C@H](NC(=O)[C@H](C)NC(=O)[C@@H](NC(=O)[C@H](CO)NC(=O)[C@H](Cc1ccc(O)cc1)NC(=O)[C@H](CC(=O)O)NC(=O)[C@H](CO)NC(=O)C1(NC(=O)[C@H](Cc2ccccc2)NC(=O)[C@@H](NC(=O)CNC(=O)[C@H](CCC(=O)O)NC(=O)C2(NC(=O)[C@@H](N)Cc3ccc(O)cc3)CCCCC2)[C@@H](C)O)CCCCC1)[C@@H](C)CC)C(=O)N[C@@H](CC(=O)O)C(=O)N[C@@H](CCCCN)C(=O)N[C@H](C(=O)N[C@@H](Cc1c[nH]cn1)C(=O)N[C@@H](CCC(N)=O)C(=O)N[C@@H](CCC(N)=O)C(=O)N[C@@H](CC(=O)O)C(=O)N[C@@H](Cc1ccccc1)C(=O)N[C@H](C(=O)N[C@@H](CC(N)=O)C(=O)N[C@@H](Cc1c[nH]c2ccccc12)C(=O)N[C@@H](CC(C)C)C(=O)N[C@@H](CC(C)C)C(=O)N[C@@H](C)C(=O)N[C@@H](CCC(N)=O)C(=O)N[C@@H](CCCCN)C(N)=O)C(C)C)[C@@H](C)CC` [Example 36, (A6c^2,7, Nle^14)hGIP(1-30)-NH2] (H-Y[Ac6c]EGTF[Ac6c]SDYSIA[Nle]DKIHQQDFVNWLLAQK-NH2; N-terminus assumed): the half-life at 0.1 mg/ml in data set [1] was 23.7 h; in data set [2] it was 29.2 h.
Consider “Y[Aib]EGTF[Ac5c]SDYSIA[Nle]DKIHQQDFVNWLLAQKGKKNDWKHNITQ-OH [Example 58, (Aib^2, A5c^7, Nle^14)hGIP(1-42)-OH]”, for which the half-life at 0.1 mg/ml in data set [1] is 37.6 h; in data set [2] it was 16.7 h.
The corresponding values for “Y[Aib]EGTF[Aib]SDYSIAMDKIHQQDFVNWLLAQKGKKNDWKHNITQ-OH [Example 3, (Aib^2, 7)hGIP(1-42)-OH]” are > 48 h and 5.5 h.
Regarding “Desaminotyrosyl-AEGTFISDYSI[Aib]MDKIHQQDFVNWLLAQKGKKNDWKHNITQ-OH [Example 101, (4Hppa^1, Aib^13)hGIP(1-42)-OH]”, the half-life at 0.1 mg/ml was 47.5 h in data set [1] and 13.4 h in data set [2].
For `CC[C@H](C)[C@H](NC(=O)[C@H](CO)NC(=O)[C@H](Cc1ccc(O)cc1)NC(=O)[C@H](CC(=O)O)NC(=O)[C@H](CO)NC(=O)[C@@H](NC(=O)[C@H](Cc1ccccc1)NC(=O)C1(NC(=O)CNC(=O)[C@H](CCC(=O)O)NC(=O)C(C)(C)NC(=O)[C@@H](N)Cc2ccc(O)cc2)CCCC1)[C@@H](C)CC)C(=O)N[C@@H](C)C(=O)N[C@@H](CCSC)C(=O)N[C@@H](CC(=O)O)C(=O)N[C@@H](CCCCN)C(=O)N[C@H](C(=O)N[C@@H](Cc1c[nH]cn1)C(=O)N[C@@H](CCC(N)=O)C(=O)N[C@@H](CCC(N)=O)C(=O)N[C@@H](CC(=O)O)C(=O)N[C@@H](Cc1ccccc1)C(=O)N[C@H](C(=O)N[C@@H](CC(N)=O)C(=O)N[C@@H](Cc1c[nH]c2ccccc12)C(=O)N[C@@H](CC(C)C)C(=O)N[C@@H](CC(C)C)C(=O)N[C@@H](C)C(=O)N[C@@H](CCC(N)=O)C(=O)N[C@@H](CCCCN)C(N)=O)C(C)C)[C@@H](C)CC` [Example 11, (Aib^2, A5c^5)hGIP(1-30)-NH2], the half-life at 0.1 mg/ml in data set [1] is 44.4 h; in data set [2] it was > 48 h.
Consider “YA[Pip]GTFISDYSI[Aib]MDKIHQQDFVNWLLAQKGKKNDWKHNITQ [Example 65, (hPro^3, Aib^13)hGIP(1-42)-OH]”, for which the half-life at 0.1 mg/ml was 14.3 h in data set [1] and 1.5 h in data set [2].
